Experimental data as given in patent publication US20230201202A1, “COMPOSITIONS AND METHODS FOR SENSITIZING ACUTE MYELOID LEUKEMIAS TO CHEMOTHERAPY” (Duke University, priority 2020, published 2023).

Tests used:
Type in all cases: cell-based
AML cells = experiment: In vitro drug sensitivity assay (GI50 assay, CellTiter-Glo); details: for Chemosensitization of AML cells by inhibitors of alternative PI3K catalytic isoforms (p110α, p110β, p110δ): sensitivity to doxorubicin, S63845 or selinexor (FIG. 3b); for Sensitization of AML cells to the drug by IPI-549 treatment; GI50 of combination vs drug alone: indicated AML cell lines (FIG. 3a-b); for Chemosensitization to the drug mediated by PI3Kγ inhibition with IPI-549: OCI-AML2 cells (FIG. 6)
Method: AML cells were plated in 96-well plates at a density of 5,000-10,000 cells per 100 μL per well. Wells were treated with drug dilution series at the doses indicated and cultured for 72 hours. Subsequently, relative cell viability was approximated using Promega CellTiter-Glo Luminescent Cell Viability Assay, normalized to either DMSO or the indicated background drug. GI50 values where approximated from dose-response curves plotted using GraphPad/Prism 8 software.

[1] = test system: phosphorylation of AKT and downstream substrates; experiment: Western immunoblotting of AKT pathway phosphorylation in AML cell lines; details: for Phosphorylation of AKT and its downstream substrates: cell line models of AML, immunoblot (FIG. 1d, FIG. 4b)
phosphorylation of AKT = experiment: Conditioned media and SDF1-a cytokine experiments (AKT activation in AML cells)
Method: Serum free RPMI-1640 medium with incubated with a confluent plate of HS-5 cells for 36 hours. Conditioned media was centrifuged at 1200 rpm for 5 minutes and filtered with a 0.45 uM filter to remove any remaining cells. AML cells were incubated with conditioned media with or without IPI-549 for 30 minutes prior to harvesting on ice for lysate preparation. An analogous strategy was performed with SDF-1a (200 ng/mL) containing media. SDF-1a was purchased from ProteinTech and solubilized in water.

## Cc1nc(NC(=O)N2CCC[C@H]2C(N)=O)sc1-c1ccnc(C(C)(C)C(F)(F)F)c1 [BYL-719, Alpelisib]
AML cells
  Chemosensitization of AML cells by inhibitors of alternative PI3K catalytic isoforms (p110α, p110β, p110δ): not observed
[1]
  Phosphorylation of AKT and its downstream substrates: minimally capable of suppressing

## C[C@H](NC(=O)c1c(N)nn2cccnc12)c1cc2cccc(C#Cc3cnn(C)c3)c2c(=O)n1-c1ccccc1 [IPI-549]
Phosphorylation of AKT; HL-60 (500 nM) and OCI-AML3 (100 nM IPI-549) cells (FIG. 1g)
  Activation of AKT signaling by media conditioned with human BM-MSCs (HS-5): fully precluded
Phosphorylation of AKT; serum-deprived AML cells, 200 ng/mL SDF1α, HL-60 500 nM, OCI-AML3 100 nM IPI-549 (FIG. 1h)
  Activation of AKT by SDF1α (CXCL12) stimulation: prevented
AML cells; panel of 10 AML cell lines (FIG. 5b-d)
  Correlation of sensitivity (GI50) to IPI-549 with sensitivity to AKT inhibition with MK-2206: strongly correlated
[1]
  Phosphorylation of AKT and its downstream substrates: lost

## Cc1sc2c(c1C)C(c1ccc(Cl)cc1)=N[C@@H](CC(=O)OC(C)(C)C)c1nnc(C)n1-2 [JQ1]
AML cells
  Sensitization of AML cells to the drug by IPI-549 treatment; GI50 of combination vs drug alone: can sensitize

## CC(C)n1nc(-c2ccc3oc(N)nc3c2)c2c(N)ncnc21 [MLN-128]
AML cells; panel of AML cell lines (FIG. 2d, FIG. 5g)
  Effect on potency of AKT/p110γ inhibition (MK-2206 or IPI-549); GI50 of combination vs single drug: enhanced the potency

## O=C(Nc1ccc2[nH]nc(-c3ccncc3)c2c1)[C@@H]1CCN(CC(=O)N2CCN(c3ccc(-c4ncccn4)cc3)CC2)C1 [SCH772984]
AML cells
  Sensitization of AML cells to the drug by IPI-549 treatment; GI50 of combination vs drug alone: can sensitize

## Cc1cc(C(C)Nc2ccccc2)c2nc(N3CCOCC3)cc(=O)n2c1 (stereo not drawn) [TGX-221]
AML cells
  Chemosensitization of AML cells by inhibitors of alternative PI3K catalytic isoforms (p110α, p110β, p110δ): not observed

## Nc1ncn([C@@H]2O[C@H](CO)[C@@H](O)[C@H]2O)c(=O)n1 [azacytidine]
AML cells
  Chemosensitization to the drug mediated by PI3Kγ inhibition with IPI-549: not observed

## Cc1c(-c2c(-c3ccc(F)o3)sc3ncnc(O[C@H](Cc4ccccc4OCc4ccnn4CC(F)(F)F)C(=O)O)c23)ccc(OCCN2CCN(C)CC2)c1Cl [compound 563845]
AML cells
  Sensitization of AML cells to the drug by IPI-549 treatment; GI50 of combination vs drug alone: can sensitize

## Nc1ccn([C@@H]2O[C@H](CO)[C@@H](O)[C@@H]2O)c(=O)n1 [cytarabine]
AML cells
  Chemosensitization to the drug mediated by PI3Kγ inhibition with IPI-549: not observed

## COc1cccc2c1C(=O)c1c(O)c3c(c(O)c1C2=O)C[C@@](O)(C(C)=O)C[C@@H]3O[C@H]1C[C@H](N)[C@H](O)[C@H](C)O1 [daunorubicin]
AML cells; any of the AML models tested (FIG. 2e; legend prints BYL-549)
  Daunorubicin sensitivity under p110α inhibition; GI50 of combination vs daunorubicin alone: did not alter
AML cells; in 9/10 AML cell lines tested (FIG. 2e)
  Daunorubicin sensitivity under p110γ inhibition (IPI-549); GI50 of combination vs daunorubicin alone: significantly potentiated
AML cells
  Sensitization of AML cells to the drug by IPI-549 treatment; GI50 of combination vs drug alone: can sensitize

## CC(=O)O[C@@]12CO[C@@H]1C[C@H](O)[C@@]1(C)C(=O)[C@H](O)C3=C(C)[C@@H](OC(=O)[C@H](O)[C@@H](NC(=O)OC(C)(C)C)c4ccccc4)C[C@@](O)([C@@H](OC(=O)c4ccccc4)[C@H]21)C3(C)C [docetaxel]
AML cells
  Chemosensitization to the drug mediated by PI3Kγ inhibition with IPI-549: not observed

## COc1cccc2c1C(=O)c1c(O)c3c(c(O)c1C2=O)C[C@@](O)(C(=O)CO)C[C@@H]3O[C@H]1C[C@H](N)[C@H](O)[C@H](C)O1 [doxorubicin]
AML cells
  Sensitization of AML cells to the drug by IPI-549 treatment; GI50 of combination vs drug alone: can sensitize

## COc1cc([C@@H]2c3cc4c(cc3[C@@H](O[C@@H]3O[C@@H]5CO[C@@H](C)O[C@H]5[C@H](O)[C@H]3O)[C@H]3COC(=O)[C@H]23)OCO4)cc(OC)c1O [etoposide]
AML cells
  Sensitization of AML cells to the drug by IPI-549 treatment; GI50 of combination vs drug alone: can sensitize

## CN1CC[C@@H](NC(=O)Nc2ccc(C#N)cc2)C[C@@H]1c1nc2ccccc2[nH]1 [glasdegib]
AML cells
  Chemosensitization to the drug mediated by PI3Kγ inhibition with IPI-549: not observed

## CC(=O)[C@]1(O)Cc2c(O)c3c(c(O)c2[C@@H](O[C@H]2C[C@H](N)[C@H](O)[C@H](C)O2)C1)C(=O)c1ccccc1C3=O [idarubicin]
AML cells
  Sensitization of AML cells to the drug by IPI-549 treatment; GI50 of combination vs drug alone: can sensitize

## CN(Cc1cnc2nc(N)nc(N)c2n1)c1ccc(C(=O)N[C@@H](CCC(=O)O)C(=O)O)cc1 [methotrexate]
AML cells
  Chemosensitization to the drug mediated by PI3Kγ inhibition with IPI-549: not observed

## O=C1[O][Pt]2([NH][C@@H]3CCCC[C@H]3[NH]2)[O]C1=O [oxaliplatin]
AML cells
  Chemosensitization to the drug mediated by PI3Kγ inhibition with IPI-549: not observed

## CC(C)(C)c1cc(NC(=O)Nc2ccc(-c3cn4c(n3)sc3cc(OCCN5CCOCC5)ccc34)cc2)no1 [quizartinib]
AML cells
  Sensitization of AML cells to the drug by IPI-549 treatment; GI50 of combination vs drug alone: can sensitize

## O=C(/C=C\n1cnc(-c2cc(C(F)(F)F)cc(C(F)(F)F)c2)n1)NNc1cnccn1 [selinexor]
AML cells
  Sensitization of AML cells to the drug by IPI-549 treatment; GI50 of combination vs drug alone: can sensitize

## CNC(=O)c1cc(Oc2ccc(NC(=O)Nc3ccc(Cl)c(C(F)(F)F)c3)cc2)ccn1 [sorafenib]
AML cells
  Sensitization of AML cells to the drug by IPI-549 treatment; GI50 of combination vs drug alone: can sensitize

## pertussis toxin
[1]; AML cell lines, Ptx 100 ng/mL for 24 hours (FIG. 1f)
  AKT phosphorylation: diminished
